Values quoted from earlier work, collected in patent US5177084A, “Therapeutic use of substituted benzenes, formulations thereof and novel substituted benzenes” (Merck Sharp & Dohme Ltd., priority 1989, dated 1993).

Conditions: literature report, test not specified

For `O=C(O)C(=O)O.OC1(c2ccc(Cl)cc2)CN2CCC1CC2` (centres unmarked) [Example 4, 3-(4-Chlorophenyl)-3-hydroxy quinuclidine Hydrogen Oxalate], the pharmacological activity is given as “did not display pharmacological activity”.
For `COc1ccc(C2(O)CN3CCC2CC3)cc1.O=C(O)C(=O)O` (centres unmarked) [Example 2, 3-Hydroxy-3-(4-Methoxyphenyl)quinuclidine Hydrogen Oxalate], the pharmacological activity is listed as “did not display pharmacological activity”.
